Peptide text beside a SMILES is read from it.
| Structure (SMILES) | logP |
| --- | --- |
| CC(=O)N[C@@H](Cc1ccccc1)C(=O)NCC(=O)N[C@@H](CC(C)C)C(N)=O | 0.6 |
| COC(=O)CCCCCC(=O)OCC(=O)C1(O)CCC2C3CCC4=CC(=O)CCC4(C)C3C(O)CC21C (stereo not given) | 3.7 |
| CCCc1ccccc1O | 2.93 |
| CC(C)OC(=O)c1ccccc1C(=O)OC(C)C | 2.83 |
| Nc1ccc2ccccc2c1S(=O)(=O)O | -1.16 |
| CN(CCO)N=Nc1ccc(C(N)=O)cc1 | 0.26 |
| C=C(Br)CC1(C(C)C)C(=O)NC(=O)NC1=O | 1.47 |
| S=C(N/N=C/c1cc[nH]c1)Nc1ccccc1 | 3.73 |
| c1ccnnc1 | -0.72 |
| Clc1ccccn1 | 1.22 |
| CCCCC(=O)c1ccc[nH]1 | 2.42 |
| CN(C)C(N(C)C)=S(I)c1ccc(Cl)c(Cl)c1 (stereo not given) | 0.49 |
| O=C(O)COc1ccc(Cl)cc1 | 2.25 |
| OCCCCCc1cccnc1 | 1.41 |
| CC(=O)NC(C)(C)C(N)=O | -0.87 |
| CN1C(=O)CN=C(c2ccccc2F)c2cc(F)ccc21 | 2.41 |
| CC(=O)N[C@H](C(=O)N[C@@H](C)C(=O)N[C@@H](C)C(N)=O)C(C)C | -1.4 |
| COC1=CC(=O)C[C@@H](C)[C@]12Oc1c(Cl)c(OC)cc(OC)c1C2=O | 2.18 |
| CCCCNc1ccccc1 | 3.58 |
| CCC(C)[N+](=O)[O-] (stereo not given) | 1.2 |
| Cc1ccc(Cl)cc1NC1=NCCN1 | 1.83 |
| COC(=O)c1cnc([N+](=O)[O-])n1C | 0.51 |
| CC1(O)CC23CC(O)C4(O)C(CC(O)C4(C)C)C(C)(O)C2CCC1C3O (stereo not given) | 0.27 |
| Nc1ccc(Cl)cc1C(=O)O | 1.57 |

| Structure (SMILES) | logP |
| --- | --- |
| CNC(=O)Oc1cccc2c1OC(C)(C)C2 | 2.32 |
| O=c1cncc[nH]1 | -1.49 |
| CNC(=O)Oc1ccc(C(C)(C)C)cc1 | 3.06 |
| O=C1CCCCC1 | 0.81 |
| O=C(O)c1cc([N+](=O)[O-])ccc1Cl | 2.03 |
| CCC(=O)O[C@]1(c2ccccc2)CCN(C)C[C@@H]1C | 2.83 |
| O=C(O)CBr | 0.41 |
| C=CCC1(C(C)CC)C(=O)NC(=O)NC1=O (stereo not given) | 1.47 |
| COc1ccc2cccnc2c1 | 2.37 |
| CSc1nc(NC(C)C)nc(NC(C)C)n1 | 3.51 |
| CN(C)c1nc(N)nc(N(C)C)n1 | 1.2 |
| Fc1cc(F)c(F)c(F)c1F | 2.53 |
| CC/C(=C\c1ccccc1)[N+](=O)[O-] | 2.86 |
| COC(=O)CCC(=O)OCC(=O)C1(O)CCC2C3CCC4=CC(=O)CCC4(C)C3C(O)CC21C (stereo not given) | 2.6 |
| CCCCCCCC(C)=O | 3.14 |
| O=C(CN1CCCCC1)Nc1cccc(F)c1 | 2.85 |
| Nc1cc(Cl)cc(Cl)c1 | 2.9 |
| O=S1OCC2C(CO1)C1(Cl)C(Cl)=C(Cl)C2(Cl)C1(Cl)Cl (stereo not given) | 3.83 |
| CCN(N=O)C(=O)Nc1ccccc1 | 2.25 |
| Oc1ccc(C2CCCCC2)cc1 | 4.22 |
| O=P1(N(CCCl)CCCl)NCCCO1 (stereo not given) | 0.63 |
| COC(=O)[C@H]1[C@H]2C[C@H]3c4[nH]c5ccccc5c4CCN3C[C@H]2CC[C@@H]1O | 2.54 |
| CON(C)C(=O)Nc1ccc(F)cc1 | 1.46 |
| O=C(OCCOCCO)c1ccccc1 | 1.16 |

| Structure (SMILES) | logP |
| --- | --- |
| COCCOC(=O)c1ccccc1 | 1.78 |
| O=C(NP(=O)(N1CC1)N1CC1)c1cccc(Br)c1 | 1.43 |
| C=CC(=O)c1ccccc1 | 1.88 |
| COc1cccc(C=C(C(N)=O)C(N)=O)c1 | 0.01 |
| CC(=O)c1ccc(C(C)C)cc1 | 2.98 |
| CNS(=O)(=O)c1ccc(N)cc1 | -0.01 |
| O=C(O)CNC(=O)c1ccccc1O | 0.95 |
| CNC(=O)OCc1c2c(n3c1C(OC(C)=O)CC3)C(=O)C(Cl)=C(OC)C2=O (stereo not given) | 2.08 |
| CC(=O)C(=Cc1cccc(Cl)c1)C(C)=O | 2.26 |
| Clc1nc(Cl)c(Cl)c(Cl)c1Cl | 3.53 |
| O=C(O)COc1cccc(-c2ccccc2)c1 | 3.18 |
| O=C(O)Cn1nc2ccccc2n1 | -1.64 |
| CC(C)(C)c1ccc([N+](=O)[O-])cc1 | 3.89 |
| CC(=O)c1ccccc1N | 1.63 |
| FC(F)(F)c1nc2c(Br)c(Br)c(Br)c(Br)c2[nH]1 | 4.81 |
| c1nnnn1C12CC3CC(CC(C3)C1)C2 | 2.95 |
| Cc1ccc(OC(=O)c2ccc(N)cc2O)cc1 | 3.38 |
| FC(F)Cl | 1.08 |
| Nc1ccc(F)c(Cl)c1 | 2.06 |
| Cc1cccc(OCC(=O)O)c1 | 1.78 |
| CNC(=O)Nc1ccc(OC)c(Cl)c1 | 1.76 |
| Cc1cc(-c2ccccc2)nnc1NCCN1CCOCC1 | 2.03 |
| NC(=O)CCNC(=O)C(F)(F)Cn1ccnc1[N+](=O)[O-] | -0.95 |
| OCCCCc1cccnc1 | 0.92 |

| Structure (SMILES) | logP |
| --- | --- |
| CCCCC(=O)O | 1.39 |
| NCCc1cccnc1 | -0.11 |
| CCCCOP(=O)(OCCCC)Oc1ccccc1 | 4.27 |
| Cc1ccccc1S(I)=C(N(C)C)N(C)C (stereo not given) | -0.1 |
| CCCC(O)C(C(=O)O)c1ccc(-c2ccccc2)cc1 (stereo not given) | 3.75 |
| CC(C)N(Cc1cccnc1)C(C)C | 2.27 |
| CCCCCCCCNC(=O)c1[nH]nc(C)c1[N+](=O)[O-] | 3.48 |
| Clc1cccc(-c2cc(Cl)ccc2Cl)c1 | 5.76 |
| CS/C(C)=N/OC(=O)N(C)SN(C)C(=O)O/N=C(\C)SC | 1.7 |
| COCCOc1ccccc1 | 1.73 |
| COC(=O)C(F)(F)F | 0.6 |
| O=C(NCc1ccc(O)cc1)c1ccccc1 | 1.87 |
| O=[N+]([O-])c1ccccc1CO | 1.24 |
| CCCN(CCC)S(=O)(=O)c1ccc(C(=O)O)cc1 | 3.21 |
| CC(=O)c1cccc(Cl)c1 | 2.51 |
| ClC(Cl)(Cl)Cl | 2.83 |
| C=C(Cl)Cl | 2.13 |
| CCOC(=O)c1ccncc1 | 1.43 |
| C=CC#N | 0.25 |
| CC1CCC(=O)CC1 | 1.38 |
| O=S1(=O)OCC2C(CO1)C1(Cl)C(Cl)=C(Cl)C2(Cl)C1(Cl)Cl (stereo not given) | 3.66 |
| CN(C)C(N(C)C)=S(I)c1ccccc1Br (stereo not given) | 0.06 |
| O=C(CCCN1CCN(c2ccccn2)CC1)c1ccc(F)cc1 | 3.3 |
| CCCN(CCC)CC(=O)OCn1ncc2c(=O)[nH]cnc21 | 1.27 |

| Structure (SMILES) | logP |
| --- | --- |
| Nc1ccn(C2CC(O)C(CO)O2)c(=O)n1 (stereo not given) | -1.77 |
| FC(F)(F)F | 1.18 |
| CCOc1c(OC)cc(CCN)cc1OC | 1.11 |
| N#Cc1ccc[nH]1 | 1.13 |
| NC(=O)C(Cl)(Cl)Cl | 1.04 |
| O=C(CN1CCCCC1)Nc1ccccc1 | 2.71 |
| CNC(=O)Oc1cc(C)ccc1C | 2.03 |
| O=C(O)CCn1nnc2ccccc21 | -0.63 |
| O=Cc1ccc(Cl)cc1 | 2.1 |
| CCOC(=O)C(SP(=S)(OC)OC)c1ccccc1 (stereo not given) | 3.69 |
| CCC(CNC)c1ccccc1 (stereo not given) | 2.82 |
| CN(C)C(=O)OCc1cccc(N(C)C)c1 | 2.28 |
| CNC(=O)Oc1ccc(SC)c(C)c1 | 2.47 |
| Nc1ccccc1F | 1.26 |
| CON(C)C(=O)Nc1ccc(Cl)cc1 | 2.3 |
| CCc1ccco1 | 2.4 |
| O=[N+]([O-])c1ccc(Cl)cc1 | 2.39 |
| CNc1nc(NC(C)C)nc(SC(F)F)n1 | 3.27 |
| c1ccc2c(c1)Oc1ccccc1S2 | 4.54 |
| CCCCNc1nc(NC)nc(SC(F)F)n1 | 3.7 |
| CC(=O)S[C@@H]1CC2=CC(=O)CC[C@]2(C)[C@H]2CC[C@@]3(C)[C@@H](CC[C@@]34CCC(=O)O4)[C@H]12 | 2.78 |
| CC(=O)N(c1ccc(N2CCOCC2)nn1)n1c(C)ccc1C | 1.64 |
| CCN(CC)CCNC(=O)c1ccc(N)cc1 | 0.88 |
| O=C(NC(CO)C(O)c1ccc([N+](=O)[O-])cc1)C(F)(F)F (stereo not given) | 1.07 |

| Structure (SMILES) | logP |
| --- | --- |
| CC1CO1 (stereo not given) | 0.03 |
| O=C1CCCCO1 | -0.35 |
| CCC(=O)OC(Cc1ccccc1)(c1ccccc1)C(C)CN(C)C (stereo not given) | 4.18 |
| CCCOC/C(=N\c1ccc(Cl)cc1C(F)(F)F)n1ccnc1 | 1.4 |
| CCNC(=O)c1ccc(S(N)(=O)=O)cc1 | 0.03 |
| NCCCCCc1ccncc1 | 1.4 |
| Cc1cnc2ccccc2c1 | 2.53 |
| CCC(=O)Nc1ccnc2cc(Cl)ccc12 | 2.73 |
| Nc1ccc(S(=O)(=O)Nc2ccccc2Cl)cc1 | 2 |
| CCCCC(=O)OCC1CCC(n2cnc3c(=O)[nH]cnc32)O1 (stereo not given) | 0.65 |
| NS(=O)(=O)c1cc2c(cc1Cl)NC(CC1CCCC1)NS2(=O)=O (stereo not given) | 1.27 |
| CCOC(C)=O | 0.73 |
| CCOP(=S)(OCC)Oc1ccc(S(C)=O)cc1 (stereo not given) | 2.23 |
| N#Cc1ccc(OCC(=O)O)cc1 | 0.93 |
| CCCC(=O)OCC(O)CO (stereo not given) | -0.17 |
| O=C(OC1CCCCC1)n1cc(F)c(=O)[nH]c1=O | 1.42 |
| CN(C)CCNC(=O)c1ccccc1 | 1.1 |
| COc1ccccc1CO | 1.13 |
| CCc1ccc(N2C(=O)CCC2=O)cc1 | 1.1 |
| O=C(O)Cc1ccc(F)cc1 | 1.55 |
| CN(N=O)C(N)=O | -0.03 |
| CN1C(=O)CN=C(c2ccccc2F)c2cc(Cl)ccc21 | 2.75 |
| C=CC(N)=O | -0.67 |
| O=NN1CCCCC1 | 0.36 |

| Structure (SMILES) | logP |
| --- | --- |
| CCCCNCCCC | 2.83 |
| CN=Cc1ccccc1 | 1.64 |
| Nc1ccc(S(=O)(=O)Nc2nccs2)cc1 | 0.05 |
| CNS(=O)(=O)c1ccccc1 | 0.92 |
| NC(C(=O)O)c1ccccc1 (stereo not given) | -1.7 |
| CCC(C)NC(=O)C=Cc1ccccc1 (stereo not given) | 2.85 |
| c1ccc(CN2CCOCC2)cc1 | 1.58 |
| CC(=O)N[C@@H](C)C(=O)N[C@@H](CC(C)C)C(=O)N[C@H](C(N)=O)C(C)C (Ac-Ala-Leu-Val-NH2) | -0.14 |
| Nc1ccc(-c2ccc(N)c(Cl)c2)cc1Cl | 3.51 |
| CN(C)C(N(C)C)=S(I)c1cccc(F)c1 (stereo not given) | -0.53 |
| CCCc1ccc([N+](=O)[O-])cc1 | 3.45 |
| NS(=O)(=O)Nc1ccccc1 | 0.4 |
| COc1ccc2ncccc2c1 | 2.2 |
| FC(F)(F)C(Cl)Br (stereo not given) | 2.3 |
| c1ccc(CNc2ccccc2)cc1 | 3.13 |
| CC(C)[C@H](C(=O)OC(C#N)c1cccc(Oc2ccccc2)c1)c1ccc(OC(F)F)cc1 (stereo not given in full) | 6.2 |
| CCN(CC)CC(O)c1ccccc1 (stereo not given) | 2.02 |
| CC(C)C(=O)Nc1ccccc1 | 1.95 |
| O=S(=O)(CF)Nc1ccc(Cl)cc1 | 2.25 |
| COP(=O)(OC)OC=C(Cl)Cl | 1.43 |
| NC(=O)Cn1ccnc1[N+](=O)[O-] | -1.22 |
